# Experimental data: patent US20030125352A1, “Therapeutic tropane compounds” (priority 2001, published 2003)
# Like-named read-outs stand apart in the source and are kept apart here.
# What was measured:
# [1] = system: DAT; conditions: literature value, cited from earlier work; for IC50: binding to the DAT
# [2] = biological target: T1, dopamine transporter (Macaca fascicularis, UniProt Q9GJT6); assay: Dopamine transporter assay: inhibition of {3H}WIN 35,428 binding in caudate-putamen membranes; set-up: species or system rhesus or cynomolgus monkey; conditions: for IC50: {3H}WIN 35,428 binding, monkey caudate-putamen; for SERT/DAT: selectivity ratio of IC50 values
# T1 construct: The caudate-putamen was dissected from coronal slices and yielded 1.4±0.4 g tissue; Membranes were prepared as described previously; from tissue; host or cells: caudate-putamen membranes of adult cynomolgus and rhesus monkeys
# [3] = biological target: T2, serotonin transporter (Macaca mulatta, UniProt Q9MYX0); assay: Serotonin transporter assay: inhibition of {3H}citalopram binding in caudate-putamen membranes; set-up: species or system rhesus or cynomolgus monkey
# T2 construct: The serotonin transporter was assayed in caudate-putamen membranes using conditions similar to those for the dopamine transporter; from tissue; host or cells: caudate-putamen membranes of adult cynomolgus and rhesus monkeys
# [4] = Table 2, read-out: IC50 (nM) DAT
# [5] = Table 2, monkey caudate-putamen, read-out: IC50 (nM) SERT
# [6] = IC50 (nM) SERT, Table 2, monkey caudate-putamen
# T2 sequence (Q9MYX0 whole entry): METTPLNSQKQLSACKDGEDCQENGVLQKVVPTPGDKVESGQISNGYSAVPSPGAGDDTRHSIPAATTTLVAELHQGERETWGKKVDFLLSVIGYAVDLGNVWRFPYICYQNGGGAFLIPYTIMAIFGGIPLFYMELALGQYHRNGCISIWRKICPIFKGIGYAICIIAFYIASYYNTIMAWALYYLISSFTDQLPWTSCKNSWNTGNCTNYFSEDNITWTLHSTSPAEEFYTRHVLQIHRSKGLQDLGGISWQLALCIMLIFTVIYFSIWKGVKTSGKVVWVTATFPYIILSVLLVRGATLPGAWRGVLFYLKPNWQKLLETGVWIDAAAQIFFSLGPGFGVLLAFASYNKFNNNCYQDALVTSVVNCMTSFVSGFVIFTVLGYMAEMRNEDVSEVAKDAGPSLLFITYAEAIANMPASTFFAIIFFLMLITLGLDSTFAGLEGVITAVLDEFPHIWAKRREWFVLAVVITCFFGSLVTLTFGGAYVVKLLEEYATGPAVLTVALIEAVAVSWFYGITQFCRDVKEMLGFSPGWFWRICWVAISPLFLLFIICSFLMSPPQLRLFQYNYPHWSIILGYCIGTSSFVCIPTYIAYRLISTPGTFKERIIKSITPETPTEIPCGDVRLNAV
# T1 sequence (Q9GJT6 whole entry): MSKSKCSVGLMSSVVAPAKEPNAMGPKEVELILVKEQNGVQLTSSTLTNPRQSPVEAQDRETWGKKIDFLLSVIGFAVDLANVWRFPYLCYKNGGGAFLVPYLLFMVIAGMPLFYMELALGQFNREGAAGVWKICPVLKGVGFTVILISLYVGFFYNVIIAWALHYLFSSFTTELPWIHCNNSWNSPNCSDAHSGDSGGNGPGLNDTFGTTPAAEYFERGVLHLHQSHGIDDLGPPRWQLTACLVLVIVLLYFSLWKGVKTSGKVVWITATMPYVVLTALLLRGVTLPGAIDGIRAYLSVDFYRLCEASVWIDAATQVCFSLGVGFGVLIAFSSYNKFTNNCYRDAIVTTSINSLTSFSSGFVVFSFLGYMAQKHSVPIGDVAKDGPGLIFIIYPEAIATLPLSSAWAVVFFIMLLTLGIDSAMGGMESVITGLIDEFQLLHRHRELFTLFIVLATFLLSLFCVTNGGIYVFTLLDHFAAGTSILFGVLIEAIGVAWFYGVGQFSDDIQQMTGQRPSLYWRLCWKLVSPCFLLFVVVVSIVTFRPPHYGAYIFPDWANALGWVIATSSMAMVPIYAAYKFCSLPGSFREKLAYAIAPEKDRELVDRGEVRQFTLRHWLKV
Structure (SMILES),SERT/DAT ([2]; Table 2),"IC50 ([2]; IC50 (nM) DAT, Table 2)","IC50 [3, 6]",further results
COC(=O)[C@H]1[C@@H](OC(=O)c2ccccc2)C[C@@H]2CC[C@H]1N2C [(1R)-(−)-cocaine],–,–,–,binds at the dopamine transporter more potently than (1S)-(+)-cocaine [1]: about 200 fold
"CCC(=O)C1C(c2ccc(Cl)c(Cl)c2)CC2CC(O)C1N2C (stereo not drawn) [Compound 26, 1-{3α-(3,4-Dichlorophenyl)-7β-hydroxy-8-methyl-8-azabicyclo{3.2.1}oct-2-yl}propan-1-one]",–,–,–,"IC50 ([2]; Table 1, read-out: IC50 (nM) DAT): 1.1 nM; IC50 ([3]; Table 1, monkey caudate-putamen, read-out: IC50 (nM) SERT): 2520 nM"
"COC(=O)[C@@H]1[C@H]2[C@H](O)C[C@@H](C[C@H]1c1ccc(F)cc1)N2C [Compound 18c, 2β-Carbomethoxy-3α-(4-fluorophenyl)-7β-hydroxy-8-methyl-8-azabicyclo{3.2.1}octane]",>120,–,–,"IC50 [2, 4]: 110 nM; IC50 [3, 5]: > 20000 nM"
COC(=O)[C@@H]1[C@H]2CC[C@@H](C[C@H]1c1ccc(Cl)c(Cl)c1)N2C [Compound 16a],73,0.38 nM,27.7 nM,–
"COC(=O)[C@@H]1[C@H]2C[C@H](O)[C@@H](C[C@H]1c1ccc(F)cc1)N2C (relative stereo) [Compound 17c, 2βCarbomethoxy-3α-(4-fluorophenyl)-6β-hydroxy-8-methyl-8-azabicyclo{3.2.1}octane]",8,739 nM,5820 nM,–
"COC(=O)C1C(c2ccc3ccccc3c2)CC2CC(O)C1N2C (stereo not drawn) [Compound 18b, 2β-Carbomethoxy-3α-(2-naphthyl)-7β-hydroxy-8-methyl-8-azabicyclo{3.2.1}octane]",34,–,–,"IC50 [3, 5]: 94 nM"
"COC(=O)[C@@H]1[C@H]2C[C@H](O)[C@@H](C[C@H]1c1ccccc1)N2C (relative stereo) [Compound 17d, 2β-Carbomethoxy-3α-phenyl-6β-hydroxy-8-methyl-8-azabicyclo{3.2.1}octane]",>3,3530 nM,> 10000 nM,–
"COC(=O)[C@@H]1[C@H]2[C@H](O)C[C@@H](C[C@H]1c1ccccc1)N2C (relative stereo) [Compound 18d, 2β-Carbomethoxy-3α-phenyl-7β-hydroxy-8-methyl-8-azabicyclo{3.2.1}octane]",>190,518 nM,> 100000 nM,–
"COC(=O)C1C(c2ccc(Cl)c(Cl)c2)CC2CCC1N2C (stereo not drawn) [Compound O-401, 2-carbomethoxy-3-(3,4-dichlorophenyl)-N -methyltropane]",–,–,–,IC50 [1]: 0.00109 µM
"COC(=O)C1C(c2ccc(Cl)c(Cl)c2)CC2CC(O)C1N2C (single isomer, unassigned) [(1R)-18a]",11,482 nM,5300 nM,–
"COC(=O)[C@@H]1[C@H]2C[C@H](O)[C@@H](C[C@H]1c1ccc(Cl)c(Cl)c1)N2C (relative stereo) [Compound 17a, 2β-Carbomethoxy-3α-(3,4-dichlorophenyl) -6β-hydroxy-8-methyl-8-azabicyclo{3.2.1}octane]",238,6.09 nM,1450 nM,–
"COC(=O)C1C(c2ccc3ccccc3c2)CC2C(O)CC1N2C (stereo not drawn) [Compound 17b, 2β-Carbomethoxy-3α-(2-naphthyl)-6β-hydroxy-8-methyl-8-azabicyclo{3.2.1}octane]",6,–,–,"IC50 [2, 4]: 32 nM; IC50 [3, 5]: 180 nM"
COC(=O)[C@@H]1[C@H]2CC[C@@H](C[C@H]1c1ccc(F)cc1)N2C (relative stereo) [Compound 16c],63,17.9 nM,1130 nM,–
"COC(=O)[C@@H]1[C@H]2[C@H](O)C[C@@H](C[C@H]1c1ccc(Cl)c(Cl)c1)N2C (relative stereo) [Compound 18a, 2β-Carbomethoxy-3α(3,4-dichlorophenyl)-7β-hydroxy-8-methyl-8-azabicyclo{3.2.1}octane]","1,170",1.19 nM,1390 nM,–
"COC(=O)C1C(c2ccc(Cl)c(Cl)c2)CC2CC(O)C1N2C (single isomer, unassigned) [(1S)-18a]",–,0.76 nM,1220 nM,–
